These results are taken from ChEMBL document CHEMBL1141145, “A chiral benzoquinolizine-2-carboxylic acid arginine salt active against vancomycin-resistant Staphylococcus aureus” (J Med Chem, 2005).

In brackets after ≈: the same amount, converted by molar mass. Numbered stars: 1 amine (or outer) side, 2 acyl side, 3 side chain; on linkers, the order of the positions; unused ones are H or OH. Bridge positions count the residues as written; N and C are the ends. Square brackets hold non-standard residues; d marks the D form. Peptide text beside a SMILES is read from it. * marks the point of attachment. X1 = O=C1C[C@@H](C(=O)[*:2])N([*:1])C[C@H]1CS[C@@H]1CN2CCC1CC2; NMePhe(4-NMe2) = CN[C@@H](Cc1ccc(N(C)C)cc1)C(=O)O; Picolinoyl(3-OH) = O=C(c1ncccc1O)*; Phg = N[C@H](C(=O)O)c1ccccc1; dAbu = CC[C@@H](N)C(=O)O

The subject of one test is Mus musculus. As to the kind of experiment: Protection of mice infected with MRSA-32 cell suspension after oral administration of compound. The test is classed as functional.
For test [1], the system named is Staphylococcus aureus. The experiment in a line: Minimum inhibitory concentration against methicillin susceptible Staphylococcus aureus after esterase action in rat serum. It counts as functional.
The test system of test [2] is Staphylococcus aureus. The experiment in a line: Minimum inhibitory concentration against methicillin susceptible Staphylococcus aureus before esterase action in rat serum. The test is classed as functional.
Test [3] has as its system Staphylococcus aureus. As to the kind of experiment: Minimum inhibitory concentration against methicillin susceptible Staphylococcus aureus. It counts as functional.
Test [4] relates to Staphylococcus aureus. As to the kind of experiment: microbe, parasite or virus in culture.
Description: Minimum inhibitory concentration against methicillin-resistant Staphylococcus aureus-5023
The subject of test [5] is Staphylococcus aureus. As to the kind of experiment: Minimum inhibitory concentration against vancomycin intermediate Staphylococcus aureus MU 50. The test is classed as functional.
Test [6] has as its system Staphylococcus aureus. The experiment in a line: Minimum inhibitory concentration against vancomycin intermediate Staphylococcus aureus MU 3. The test is classed as functional.
Test [7] deals with Staphylococcus aureus. The experiment in a line: microbe, parasite or virus in culture. The source holds these as a separate data set.
Description: Minimum inhibitory concentration against methicillin-resistant Staphylococcus aureus-33
In test [8] the test system is Staphylococcus aureus. The experiment in a line: Minimum inhibitory concentration against vancomycin-resistant Staphylococcus aureus (Hershey). The test is classed as functional.
In test [9] the test system is Staphylococcus aureus. As to the kind of experiment: microbe, parasite or virus in culture. The source holds these as a separate data set.
Description: Minimum inhibitory concentration against methicillin-resistant Staphylococcus aureus-32
The mark [10] stands for this setting: Mus musculus, MRSA-32, po, read-out: ED50.
The mark [11] stands for this setting: Staphylococcus aureus, read-out: MIC.

On to `C[C@H]1CCc2c(N3CCC(OC(=O)C(C)(C)C)CC3)c(F)cc3c(=O)c(C(=O)OCOC(=O)C(C)(C)C)cn1c23`, for which the ED50 (commonly the midpoint of the dose-response relation) in the test with Mus musculus (setting [10]) was over 150 mg/kg. Moreover, the MIC against Staphylococcus aureus [1] and in the test on Staphylococcus aureus [2] was over 16 µg/mL each time.
As to `COC(=O)c1cn2c3c(c(N4CCC(O)CC4)c(F)cc3c1=O)CC[C@@H]2C`, the ED50 with Mus musculus (setting [10]) was over 100 mg/kg. Besides, the MIC with Staphylococcus aureus [1] stood at 1 µg/mL (≈ 2.67 µM); against Staphylococcus aureus [2] it was 8 µg/mL (≈ 21.4 µM).
Turning to `C[C@H]1CCc2c(N3CCC(OC(=O)[C@@H](N)CCC/N=C(\N)N[N+](=O)[O-])CC3)c(F)cc3c(=O)c(C(=O)O)cn1c23.O=C(O)C(F)(F)F`, the ED50 in the test with Mus musculus (setting [10]) is over 75 mg/kg. For the same molecule, the MIC was 0.06 µg/mL with Staphylococcus aureus [1] and 0.25 µg/mL in the test with Staphylococcus aureus [2].
For `CCOC(=O)COC(=O)c1cn2c3c(c(N4CCC(O)CC4)c(F)cc3c1=O)CC[C@@H]2C` the same measures were over 150 mg/kg, 2 µg/mL (≈ 4.48 µM) and 8 µg/mL (≈ 17.9 µM).
For `C[C@H]1CCc2c(N3CCC(O)CC3)c(F)cc3c(=O)c(C(=O)O)cn1c23.NCCCC[C@H](N)C(=O)O`, in the test with Staphylococcus aureus [3] (setting [11]), the MIC worked out at 0.03 µg/mL. The 50% effective dose (ED50) in the test with Mus musculus (setting [10]) was over 100 mg/kg.
In the case of `C[C@H]1CCc2c(N3CCC(O)CC3)c(F)cc3c(=O)c(C(=O)OCCN4CCNCC4)cn1c23`, in the test with Mus musculus (setting [10]), the ED50 is over 100 mg/kg. Further, the results for the MIC against Staphylococcus aureus [1] and in the test on Staphylococcus aureus [2] were 0.12 µg/mL (≈ 0.254 µM) and 0.5 µg/mL (≈ 1.06 µM), respectively.
With `CCN(CC)CCS(=O)(=O)[C@@H]1CCN2C(=O)c3coc(n3)CC(=O)C[C@H](O)/C=C(C)/C=C/CNC(=O)/C=C/[C@@H](C)[C@@H](C(C)C)OC(=O)[C@@H]12.CC[C@H]1NC(=O)[C@@H](NC(=O)c2ncccc2O)[C@@H](C)OC(=O)[C@H](c2ccccc2)NC(=O)[C@@H]2CC(=O)[C@H](CS[C@@H]3CN4CCC3CC4)CN2C(=O)[C@H](Cc2ccc(N(C)C)cc2)N(C)C(=O)[C@@H]2CCCN2C1=O` [QUINUPRISTIN/DALFOPRISTIN] ({Picolinoyl(3-OH)}-T[dAbu]P[NMePhe(4-NMe2)][X1][Phg]; ester 1-C), the MIC amounted to 1 µg/mL against Staphylococcus aureus [4]; 1 µg/mL with Staphylococcus aureus [5]; 1 µg/mL against Staphylococcus aureus [6]; 1 µg/mL against Staphylococcus aureus [7]; 1 µg/mL with Staphylococcus aureus [8]; 0.5 µg/mL in the test on Staphylococcus aureus [9].
Consider `C[C@H]1CCc2c(N3CCC(O)CC3)c(F)cc3c(=O)c(C(=O)OCCN4CCCCC4)cn1c23`, for which the ED50 with Mus musculus (setting [10]) is over 150 mg/kg. Moreover, the values for the MIC in the test with Staphylococcus aureus [1] and in the test with Staphylococcus aureus [2] were 0.25 µg/mL (≈ 0.53 µM) and 2 µg/mL (≈ 4.24 µM), respectively.
For `C[C@H]1CCc2c(N3CCC(OC(=O)C(C)(C)C)CC3)c(F)cc3c(=O)c(C(=O)O)cn1c23` the same measures were over 100 mg/kg, 0.25 µg/mL (≈ 0.562 µM) and 0.5 µg/mL (≈ 1.12 µM).
Regarding `C[C@H]1CCc2c(N3CCC(O)CC3)c(F)cc3c(=O)c(C(=O)[O-])cn1c23.[K+]`, the MIC in the test with Staphylococcus aureus [3] (setting [11]) is 0.03 µg/mL. In addition, the ED50 in the test with Mus musculus (setting [10]) is over 100 mg/kg.
In the test on Staphylococcus aureus [3], `C[C@H]1CCc2c(N3CCC(O)CC3)c(F)cc3c(=O)c(C(=O)O)cn1c23.N=C(N)NCCC[C@H](N)C(=O)O` (stereo in doubt; 20) showed an MIC of 0.03 µg/mL. The molecule further registered an ED50 with Mus musculus of over 100 mg/kg.
`C[C@H]1CCc2c(N3CCC(OC(=O)[C@H](N)CCCN=C(N)N)CC3)c(F)cc3c(=O)c(C(=O)O)cn1c23`: the ED50 in the test on Mus musculus (setting [10]) is over 100 mg/kg. Besides, the MIC came out at 0.1 µg/mL (≈ 0.194 µM) in the test on Staphylococcus aureus [1] and 1 µg/mL (≈ 1.94 µM) against Staphylococcus aureus [2].
As for `C[C@H]1CCc2c(N3CCC(O)CC3)c(F)cc3c(=O)c(C(=O)O)cn1c23.N=C(N)NCCC[C@H](N)C(=O)O` (stereo in doubt; 19), the MIC in the test on Staphylococcus aureus [3] (setting [11]) worked out at 0.03 µg/mL. In addition, the ED50 with Mus musculus (setting [10]) is 90.3 mg/kg.
Turning to `C[C@H]1CCc2c(N3CCC(OC(=O)[C@H](CCC/N=C(\N)N[N+](=O)[O-])NC(=O)[C@@H](N)CCC/N=C(\N)N[N+](=O)[O-])CC3)c(F)cc3c(=O)c(C(=O)O)cn1c23.O=C(O)C(F)(F)F`, the ED50 in the test on Mus musculus (setting [10]) was over 75 mg/kg. Besides, the MIC with Staphylococcus aureus [1] was 0.12 µg/mL; in the test with Staphylococcus aureus [2], 0.5 µg/mL.
